Assay results reported in patent publication US20230009145A1, “INHIBITION OF TMEM16A BY BENZBROMARONE OR NICLOSAMIDE FOR TREATING POLYCYSTIC KIDNEY DISEASE AND/OR POLYCYSTIC LIVER DISEASE” (UNIVERSITÄT REGENSBURG, priority 2019, published 2023).
Entries after “also recorded” stand apart in the source; their conditions may differ.

Tests used:
M1 collecting duct cells [1] = experiment: Ki-67 proliferation staining in M1 organoids/cysts; type: cell-based, mouse; conditions: M1 organoids, shPKD1/shPKD2, 5 μM inhibitor
Method: M1 cells grown under confluent conditions for 4 days on glass coverslips and M1 organoids grown for 6 days were fixed for 10 min with methanol at −20° C. Organoids were isolated with ice cold 5 mM EDTA in PBS and seeded in poly-L-lysine coated coverslips. After seeded, cells were fixed for 10 min with methanol at −20° C. After washing, the cells were permeabilized with 0.5% (v/v, PBS) Triton X-100 for 10 min and blocked with 1% (w/v, PBS) bovine serum albumin for 1 h at room temperature. The cells were incubated overnight with primary antibodies (moo) against rabbit anti-TMEM16A (Davids Biotechnologie, Regensburg, Germany), or rat anti-Ki-67 (DAKO, M7249, Germany) or mouse anti-acetylated tubulin (T7451, Sigma-Aldrich, Germany). Binding of the primary antibody was visualized by incubation with appropriate secondary antibodies conjugated with Alexa Fluor 488 or Alexa Fluor 546 (1:300, Molecular Probes, Invitrogen). Nuclei were stained with Hoe33342 ([…] PBS, AppliChem, Darmstadt, Germany). Glass coverslips were mounted on glass slides with fluorescent mounting medium (DakoCytomation, Hamburg, Germany) and examined with an ApoTome Axiovert 200M fluorescence microscope (Zeiss, Germany).

M1 collecting duct cells [2] = experiment: M1 renal organoid / cyst model (organoid/cyst volume in matrigel); type: cell-based, mouse; conditions: for increase in cyst volume upon knockdown of PKD1/PKD2: M1 organoids, shPKD1/shPKD2, 5 μM inhibitor
Method: M1 cells were resuspended as a single-cell suspension in 50/50% Matrigel/type I collagen and transferred into 24-well plates (30×10^3 cells/well, four wells per condition) for 9 days. Medium was changed every 3 days. Every 3 days thirty random visual fields per well were photographed with an Axiovert 200 microscope (Zeiss, Germany). Cyst area of the lumina (˜30-150 cysts per condition and single experimental procedure) were measured with AxioVision (Zeiss, Germany). Cyst volume was then estimated using the formula for the volume of a sphere, 4/3πr^3.

[3] = system: mouse primary renal epithelial and M1 collecting duct cells; experiment: Measurement of [Ca2+]i (Fura-2); type: cell-based; conditions: for enhanced Ca2+ entry (SOCE) / enhanced CPA-induced store release: PKD1/PKD2 knockout cells; for enhanced Ca2+ entry (SOCE): 5 μM; for enhanced CPA-induced store release: CPA 10 μM, inhibitor 5 μM
Method: Primary cilium and membrane Ca^2+ signals were detected after MDCK M2 and C7 cell were transfected with 5HT6-mCherry-GECO1.0 (5HT6-GECO, Addgene, Cambridge, Mass., USA). Cells were grown to confluence in glass coverslips and serum starved for 4-6 days to induce cilium formation. Afterwards, the cells were mounted and perfused in Ringer's solution. The mCherry fluorescence of the indicator was used to localize the Ca^2+ sensor. Therefore, before each experiment, a photo was taken exciting the 5HT6-GECO at 560 nm, and the emission was recorded between 620±30 nm using a CCD-camera (CoolSnap HQ, Visitron Systems, Germany). To measure the ciliary Ca^2+ changes, 5HT6-GECO was excited at 485/405 nm, and the emission was recorded between 535±12.5 nm. The results for [Ca^2+ ]cilium and [Ca^2+]cyt were obtained at 485/405 nm changes and given in ratio. Measurement of the global cytosolic Ca^2+ changes were performed as described recently. In brief, cells were loaded with 5 μM Fura-2, AM (Molecular Probes) in OptiMEM (Invitogen) with 0.02% pluronic (Molecular Probes) for 1 h at RT and 30 min at 37° C. Fura-2 was excited at 340/380 nm, and the emission was recorded between 470 and 550 nm using a CCD-camera (CoolSnap HQ, Visitron Systems, Germany). Control of experiment, imaging acquisition, and data analysis were done with the software package Meta-Fluor (Universal imaging, USA). [Ca2+]i was calculated from the 340/380 nm fluorescence ratio after background subtraction. The formula used to calculate [Ca^2+]i was [Ca^2+]i=Kd×(R−Rmin)/(Rmax−R)×(Sf2/Sb2), where R is the observed fluorescence ratio. The values Rmax and Rmin (maximum and minimum ratios) and the constant Sf2/Sb2 (fluorescence of free and Ca^2+-bound Fura-2 at 380 nm) were calculated using 1 μmol/liter ionomycin (Calbiochem), 5 μmol/liter nigericin, 10 μmol/liter monensin (Sigma), and 5 mmol/liter EGTA to equilibrate intracellular and extracellular Ca^2+ in intact Fura-2-loaded cells. The dissociation constant for the Fura-2·Ca^2+ complex was taken as 224 nmol/liter. ER Ca^2+ signals were detected in Ca^2+ sensor ER-LAR-GECO1 (Addgene, Cambridge, Mass., USA) expressing M1 cells. Cells were excited at 560 nm and emission was recorded between 620±30 nm.

TMEM16A = molecular target: T1, TMEM16A (Homo sapiens, UniProt Q5XXA6); conditions: references [1, 2]; cited from earlier work
T1 sequence (Q5XXA6 1-986): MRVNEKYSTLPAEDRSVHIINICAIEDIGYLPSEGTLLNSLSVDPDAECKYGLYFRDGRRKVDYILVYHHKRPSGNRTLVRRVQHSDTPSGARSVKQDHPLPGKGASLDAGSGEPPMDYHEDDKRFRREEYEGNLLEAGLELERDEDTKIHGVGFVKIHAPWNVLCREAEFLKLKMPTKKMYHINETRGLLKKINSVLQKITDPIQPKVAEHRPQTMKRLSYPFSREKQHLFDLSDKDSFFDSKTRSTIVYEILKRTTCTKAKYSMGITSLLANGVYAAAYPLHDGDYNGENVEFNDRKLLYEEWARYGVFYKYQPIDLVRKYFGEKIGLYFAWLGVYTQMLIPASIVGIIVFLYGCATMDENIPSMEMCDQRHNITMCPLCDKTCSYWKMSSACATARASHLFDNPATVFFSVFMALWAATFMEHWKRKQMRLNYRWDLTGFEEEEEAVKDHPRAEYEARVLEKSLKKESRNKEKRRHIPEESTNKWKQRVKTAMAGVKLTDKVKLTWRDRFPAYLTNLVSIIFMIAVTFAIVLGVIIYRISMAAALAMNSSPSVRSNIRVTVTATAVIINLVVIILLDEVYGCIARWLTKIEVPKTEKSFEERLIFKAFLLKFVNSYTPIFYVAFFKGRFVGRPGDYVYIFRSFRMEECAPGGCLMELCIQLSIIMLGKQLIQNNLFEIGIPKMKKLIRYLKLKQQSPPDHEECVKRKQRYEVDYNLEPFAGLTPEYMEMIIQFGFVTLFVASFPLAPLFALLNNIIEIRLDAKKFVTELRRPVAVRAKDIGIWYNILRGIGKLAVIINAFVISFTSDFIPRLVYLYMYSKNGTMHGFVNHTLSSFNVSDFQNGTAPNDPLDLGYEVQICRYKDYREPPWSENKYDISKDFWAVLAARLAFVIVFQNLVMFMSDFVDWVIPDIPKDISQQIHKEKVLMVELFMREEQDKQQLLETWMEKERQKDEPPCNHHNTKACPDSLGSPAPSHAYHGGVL

PKD1-/- mice (ADPKD) [4] = experiment: Inhibition of cyst growth in vivo in PKD1-/- mice; set-up: species or system mouse; conditions: 1 μg/kg/day I.P. for 30 days
Method: Inducible and tubule-specific PKD1 knockout (PKD1−/−) leads to ADPKD and polycystic kidney disease. Wt mice and mice with a knockout in the gene PKD1 were treated with benzbromarone (1 μg/kg/day intraperitoneal (I.P.) benzbromarone (BBR)) for 30 days starting 4 weeks after induction of the PKD1 knockout at postnatal (PN) 20-22.

PKD1-/- mice (ADPKD) [5] = experiment: Ki-67 cell proliferation in kidneys of PKD1-/- mice; type: in vivo, mouse; conditions: kidneys of PKD1-/- mice treated with benzbromarone
Excerpt: Cell proliferation was examined in kidneys of control animals (PKD+/+) and PKD1−/− animals using the proliferation marker Ki-67.

[6] = system: Polycystin-1-deficient collecting duct (plMDCK) cells; experiment: plMDCK cyst growth in collagen I matrix; type: cell-based, dog; conditions: 10 μM forskolin, 5 days; for mean cyst volumes: 0.1 μM or 1 μM, vs control
Method: Polycystin-1-deficient collecting duct ([…]) cells were resuspended within a collagen I matrix where they spontaneously form cysts and grow in a secretion-dependent manner in the presence of 10 μM forskolin for 5 days. Medium was supplemented with either 0.1 μM or 1 μM niclosamide or 0.1 μM or 1 μM nitazoxanide. Thereafter, cyst volumes were analyzed. […] The effect of niclosamide and derivatives thereof, e.g. nitazoxanide, on cyst growth was analyzed. Particularly, it was analyzed whether there is a dose-dependent effect on cyst growth. Polycystin-1-deficient collecting duct (p1MDCK) cells were resuspended in a collagen I matrix to form cysts in vitro and were cultured in the presence of […] forskolin for 5 days. The cells were treated with either 0.1 μM or 1 μM niclosamide, or with 0.1 μM or 1 μM of an exemplary niclosamide derivative, namely nitazoxanide.

## CC(C)(C)C1CCc2c(sc(NC(=O)c3ccco3)c2C(=O)O)C1 (stereo not shown) [CaCCinhAO1]
M1 collecting duct cells [1]
  increase in proliferation (Ki-67) upon knockdown of PKD1/PKD2: blocked increase in volume and proliferation
M1 collecting duct cells [1]; listed as CaCCinhA01
  increase in proliferation (Ki-67) upon knockdown of PKD1/PKD2: inhibition
M1 collecting duct cells [2]
  increase in cyst volume upon knockdown of PKD1/PKD2: blocked increase in volume
M1 collecting duct cells [2]; listed as CaCCinhA01
  increase in cyst volume upon knockdown of PKD1/PKD2: inhibition

## COc1ccc(CCCOC(Cn2ccnc2)c2ccc(OC)cc2)cc1 (stereo not shown) [SK&F96365]
[3]
  enhanced Ca2+ entry (SOCE): inhibited enhanced Ca^2+ entry
  enhanced CPA-induced store release: abolished enhanced CPA-induced store release

## Cc1nnsc1C(=O)Nc1ccc(-n2nc(C(F)(F)F)cc2C(F)(F)F)cc1 [YM58483]
[3]
  enhanced Ca2+ entry (SOCE): inhibited enhanced Ca^2+ entry
  enhanced CPA-induced store release: abolished enhanced CPA-induced store release

## N=C(N)NC(=O)c1nc(Cl)c(N)nc1N [amiloride]
M1 collecting duct cells [2]; M1 renal organoids, data not shown
  M1 organoid volume when grown in amiloride: increase their volume

## CCc1oc2ccccc2c1C(=O)c1cc(Br)c(O)c(Br)c1 [benzbromarone]
TMEM16A
  inhibition of TMEM16A: potently inhibit
M1 collecting duct cells [1]
  increase in proliferation (Ki-67) upon knockdown of PKD1/PKD2: inhibition
M1 collecting duct cells [1]; listed as Benzbromarone
  increase in proliferation (Ki-67) upon knockdown of PKD1/PKD2: blocked increase in volume and proliferation
M1 collecting duct cells [2]
  increase in cyst volume upon knockdown of PKD1/PKD2: inhibition
M1 collecting duct cells [2]; listed as Benzbromarone
  increase in cyst volume upon knockdown of PKD1/PKD2: blocked increase in volume
PKD1-/- mice (ADPKD) [4]
  cyst development / cyst growth: remarkable delay in cyst development
PKD1-/- mice (ADPKD) [4]; listed as Benzbromarone
  cyst development / cyst growth: significantly inhibits cyst growth
PKD1-/- mice (ADPKD) [5]
  pathologic cell proliferation (Ki-67): inhibition of pathologic cell proliferation; also recorded: largely abolished pathologic proliferation

## CCCCNc1cc(C(=O)O)cc(S(N)(=O)=O)c1Oc1ccccc1 [bumetanide]
M1 collecting duct cells [2]; M1 organoids without knockdown, bumetanide 100 μM continuously in matrigel
  formation of the M1 renal organoid: did not interfere with the formation of the organoid
M1 collecting duct cells [2]; shPKD1/shPKD2 M1 cells, bumetanide 100 μM, 9 days
  increase in organoid volume upon knockdown of PKD1 or PKD2: inhibited

## Cn1c(=O)c2c(ncn2C)n(C)c1=O [caffeine]
[3]; mouse wt and PKD1-/- primary renal epithelial and M1 collecting duct cells
  intracellular Ca2+: did not increase intracellular Ca^2+

## O=C(Nc1ccc([N+](=O)[O-])cc1Cl)c1cc(Cl)ccc1O [niclosamide, 5-Chlor-N-(2-chlor-4-nitrophenyl)-2-hydroxybenzamid]
TMEM16A
  inhibition of TMEM16A: potent inhibitor
[6]
  mean cyst volumes: inhibit cyst growth in a dose-dependent manner; also recorded: significantly decreased
  reduction in cyst volumes, 1 μM compared to 0.1 μM: higher reduction in cyst volumes

## CC(=O)Oc1ccccc1C(=O)Nc1ncc([N+](=O)[O-])s1 [nitazoxanide]
[6]
  mean cyst volumes: inhibit cyst growth in a dose-dependent manner; also recorded: significantly decreased
  reduction in cyst volumes, 1 μM compared to 0.1 μM: higher reduction in cyst volumes
